Earlier results, collected in patent US20210128795A1, “SPIRAL COATED STENT WITH CONTROLLABLE GRADIENT DEGRADATION, PREPARATION METHOD THEREOF AND APPLICATION THEREOF” (Zhuhai Ruizhan Biomaterials Co., Ltd., priority 2018, published 2021).
Where two headings read alike, the source gives them in different places.

System: rats

Row | Structure (SMILES) | LD50 value (median lethal dose) (rat, in vivo) | LD50 value (median lethal dose) (rats per os)
1 | OCCCCO [1,4-butanediol] | 1,525 mg/kg | 
2 | OCCCO [1,3-propanediol] |  | 16,080 mg/kg
